Literature values in US20180327354A1, “Unnatural Analogues of Calcitriol and Uses Thereof” (Vidasym, Inc., priority 2009, published 2018).
Like-named read-outs stand apart in the source and are kept apart here.

How the values were obtained:
uremic rats = conditions: cited from earlier work
[1] = clinical studies, Martin et al., 2001; cited from earlier work
[2] = Slatopolsky et al., 1998, converted from ng/rat

C[C@H](/C=C/[C@H](C)C(C)(C)O)[C@H]1CC[C@H]2/C(=C/C=C3C[C@@H](O)C[C@H](O)C3)CCC[C@]12C [paricalcitol]
dose at which compound raises serum Ca (uremic rats; Noonan et al., 2008): 0.083 µg/kg | dose at which compound starts to suppress serum PTH (uremic rats; Noonan et al., 2008): 0.083 µg/kg | dose at which compound raises serum Ca (uremic rats; [2]): ~0.0625 µg/kg | dose at which compound starts to suppress serum PTH (uremic rats; [2]): ~0.02 µg/kg | dose at which compound raises serum Ca (uremic rats; Slatopolsky et al., 1998): 25 ng/rat | dose at which compound starts to suppress serum PTH (uremic rats; Slatopolsky et al., 1998): 8 ng/rat | fold less potent in raising serum calcium than calcitriol [1]: 10 fold | fold less potent in suppressing PTH than calcitriol [1]: about 3 fold
